≈ marks a conversion by molar mass, not a printed value. Like-named read-outs stand apart in the source and are kept apart here.
How the values were obtained:
H. flu = assay type: cell-based, H. influenza
S. pneumo. = test: MIC assay, S. pneumo.; assay type: cell-based, Streptococcus pneumoniae
S. aureus = test: MIC assay, S. aureus; assay type: cell-based, Staphylococcus aureus
E. faecalis = test: MIC assay, E. faecalis; assay type: cell-based, Enterococcus faecalis
E coli = test: MIC assay, E coli; assay type: cell-based

Compound	MIC (μg/mL) H. flu (H. flu; H. flu) [µg/mL]	MIC (μg/mL) S. pneumo. (S. pneumo.) [µg/mL]	MIC (μg/mL) S. aureus (S. aureus) [µg/mL]	MIC (μg/mL) E. faecalis (E. faecalis) [µg/mL]	MIC (μg/mL) E coli (E coli) [µg/mL]	MIC (μg/mL) H. flu (H. flu) [µg/mL]
CCC1CN(c2cc(O)c3nc4c5c6c7c(C)c(O)c5c(=O)c(c-4oc3c2)NC(=O)C(C)=CC=CC(C)C(O)C(C)C(O)C(C)C(O)C(C)C(OC)C=COC(C)(O7)C6=O)CC(CC)N1 (stereo not drawn) [Compound 88]	0.25 (≈ 0.278 µM)	0.0005 (≈ 0.000556 µM)	0.03 (≈ 0.0334 µM)	0.12 (≈ 0.133 µM)	4 (≈ 4.45 µM)	
COCCN1CCN(c2cc(O)c3nc4c5c6c7c(C)c(O)c5c(=O)c(c-4oc3c2)NC(=O)C(C)=CC=CC(C)C(O)C(C)C(O)C(C)C(O)C(C)C(OC)C=COC(C)(O7)C6=O)CC1 (stereo not drawn) [Compound 89]	0.25 (≈ 0.277 µM)	0.00025 (≈ 0.000277 µM)	0.004 (≈ 0.00444 µM)	0.12 (≈ 0.133 µM)	8 (≈ 8.88 µM)	
CCC1CN(c2cc(O)c3nc4c5c6c7c(C)c(O)c5c(=O)c(c-4oc3c2)NC(=O)C(C)=CC=CC(C)C(O)C(C)C(O)C(C)C(O)C(C)C(OC)C=COC(C)(O7)C6=O)CC(C)N1 (stereo not drawn) [Compound 90]	0.25 (≈ 0.282 µM)	0.00012 (≈ 0.000136 µM)	0.004 (≈ 0.00452 µM)	0.5 (≈ 0.565 µM)	4 (≈ 4.52 µM)	
CCOc1c(N2CCN(CC)CC2)ccc2nc3c4c5c6c(C)c(O)c4c(=O)c(c-3oc12)NC(=O)C(C)=CC=CC(C)C(O)C(C)C(O)C(C)C(O)C(C)C(OC)C=COC(C)(O6)C5=O (stereo not drawn) [Compound 91]	0.25 (≈ 0.278 µM)	0.0005 (≈ 0.000556 µM)	0.008 (≈ 0.0089 µM)	0.5 (≈ 0.556 µM)	8 (≈ 8.9 µM)	
CCOc1c(N2CCN(CCOC)CC2)cc(N2CCN(CCOC)CC2)c2nc3c4c5c6c(C)c(O)c4c(=O)c(c-3oc12)NC(=O)C(C)=CC=CC(C)C(O)C(C)C(O)C(C)C(O)C(C)C(OC)C=COC(C)(O6)C5=O (stereo not drawn) [Compound 92]	2 (≈ 1.87 µM)	0.001 (≈ 0.000933 µM)	0.12 (≈ 0.112 µM)	8 (≈ 7.47 µM)	>8	
CCOc1c(N2CCN(CCOC)CC2)ccc2nc3c4c5c6c(C)c(O)c4c(=O)c(c-3oc12)NC(=O)C(C)=CC=CC(C)C(O)C(C)C(O)C(C)C(O)C(C)C(OC)C=COC(C)(O6)C5=O (stereo not drawn) [Compound 93]	0.5 (≈ 0.538 µM)	0.005 (≈ 0.00538 µM)	0.015 (≈ 0.0161 µM)	1 (≈ 1.08 µM)	>8	
COC1C=COC2(C)Oc3c(C)c(O)c4c(=O)c(c5n(C)c6cc(N7CC(C)NC(C)C7)ccc6nc-5c4c3C2=O)NC(=O)C(C)=CC=CC(C)C(O)C(C)C(O)C(C)C(O)C1C (stereo not drawn) [Compound 94]	4 (≈ 4.61 µM)	2 (≈ 2.3 µM)	1 (≈ 1.15 µM)	>8	>8	
COC1C=COC2(C)Oc3c(C)c(O)c4c(=O)c(c5oc6cc(N7CCN(C8CCN(C)CC8)CC7)cc(O)c6nc-5c4c3C2=O)NC(=O)C(C)=CC=CC(C)C(O)C(C)C(O)C(C)C(O)C1C (stereo not drawn) [Compound 95]	1 (≈ 1.06 µM)	0.002 (≈ 0.00213 µM)	0.015 (≈ 0.016 µM)	0.5 (≈ 0.532 µM)	>8	
COC1C=COC2(C)Oc3c(C)c(O)c4c(=O)c(c5oc6cc(N7CCN(CC8CC8)CC7)cc(O)c6nc-5c4c3C2=O)NC(=O)C(C)=CC=CC(C)C(O)C(C)C(O)C(C)C(O)C1C (stereo not drawn) [Compound 96]	0.25 (≈ 0.279 µM)	0.0005 (≈ 0.000557 µM)	0.008 (≈ 0.00892 µM)	0.06 (≈ 0.0669 µM)	2 (≈ 2.23 µM)	
COC1C=COC2(C)Oc3c(C)c(O)c4c(=O)c(c5oc6cc(N7CC(C)NCC7C)cc(O)c6nc-5c4c3C2=O)NC(=O)C(C)=CC=CC(C)C(O)C(C)C(O)C(C)C(O)C1C (stereo not drawn) [Compound 97]	0.25 (≈ 0.287 µM)	0.0005 (≈ 0.000574 µM)	0.004 (≈ 0.00459 µM)	0.12 (≈ 0.138 µM)	4 (≈ 4.59 µM)	
COC1C=COC2(C)Oc3c(C)c(O)c4c(=O)c(c5oc6cc(N7CCN(CCO)CC7)cc(O)c6nc-5c4c3C2=O)NC(=O)C(C)=CC=CC(C)C(O)C(C)C(O)C(C)C(O)C1C (stereo not drawn) [Compound 98]	0.25 (≈ 0.282 µM)	0.0005 (≈ 0.000564 µM)	0.008 (≈ 0.00902 µM)	0.12 (≈ 0.135 µM)	8 (≈ 9.02 µM)	
COC1C=COC2(C)Oc3c(C)c(O)c4c(=O)c(c5oc6cc(N7CCN(c8ccccc8)CC7)cc(O)c6nc-5c4c3C2=O)NC(=O)C(C)=CC=CC(C)C(O)C(C)C(O)C(C)C(O)C1C (stereo not drawn) [Compound 99]	0.25 (≈ 0.272 µM)	0.001 (≈ 0.00109 µM)	0.004 (≈ 0.00435 µM)	0.06 (≈ 0.0653 µM)	4 (≈ 4.35 µM)	
COC1C=COC2(C)Oc3c(C)c(O)c4c(=O)c(c5oc6cc(N7CCN(CCN(C)C)CC7)cc(O)c6nc-5c4c3C2=O)NC(=O)C(C)=CC=CC(C)C(O)C(C)C(O)C(C)C(O)C1C (stereo not drawn) [Compound 100]	0.12 (≈ 0.131 µM)	0.008 (≈ 0.00875 µM)	0.03 (≈ 0.0328 µM)	0.5 (≈ 0.547 µM)	>8	
COC1C=COC2(C)Oc3c(C)c(O)c4c(=O)c(c5sc6cc(N7CCN(C)CC7)ccc6nc-5c4c3C2=O)NC(=O)C(C)=CC=CC(C)C(O)C(C)C(O)C(C)C(O)C1C (stereo not drawn) [Compound 101]	0.12 (≈ 0.14 µM)	0.00012 (≈ 0.00014 µM)	0.002 (≈ 0.00233 µM)	0.12 (≈ 0.14 µM)	2 (≈ 2.33 µM)	
COC1C=COC2(C)Oc3c(C)c(O)c4c(=O)c(c5oc6cc(N7CCNCC7)cc(O)c6nc-5c4c3C2=O)NC(=O)C(C)=CC=CC(C)C(O)C(C)C(O)C(C)C(O)C1C (stereo not drawn) [Compound 104]		0.002 (≈ 0.00237 µM)	0.008 (≈ 0.00949 µM)	0.06 (≈ 0.0712 µM)	4 (≈ 4.75 µM)	0.12 (≈ 0.142 µM)
CCOc1c(N2CCN(CC3CC3)CC2)ccc2nc3c4c5c6c(C)c(O)c4c(=O)c(c-3oc12)NC(=O)/C(C)=C\C=C\[C@H](C)[C@H](O)[C@@H](C)[C@@H](O)[C@@H](C)[C@H](O)[C@H](C)[C@@H](OC)/C=C/O[C@@](C)(O6)C5=O [Compound 105]	1 (≈ 1.08 µM)	0.015 (≈ 0.0162 µM)	0.03 (≈ 0.0324 µM)	0.5 (≈ 0.54 µM)	>8	
CO[C@H]1/C=C/O[C@@]2(C)Oc3c(C)c(O)c4c(=O)c(c5oc6c(F)c(N7CCN(CC(C)C)CC7)ccc6nc-5c4c3C2=O)NC(=O)/C(C)=C\C=C\[C@H](C)[C@H](O)[C@@H](C)[C@@H](O)[C@@H](C)[C@H](O)[C@@H]1C [Compound 106]	0.5 (≈ 0.555 µM)	0.008 (≈ 0.00888 µM)	0.03 (≈ 0.0333 µM)	0.5 (≈ 0.555 µM)	8 (≈ 8.88 µM)	
COC1C=COC2(C)Oc3c(C)c(O)c4c(=O)c(c5oc6cc(N7CCN(C(=O)C8CC8)CC7)cc(O)c6nc-5c4c3C2=O)NC(=O)C(C)=CC=CC(C)C(O)C(C)C(O)C(C)C(O)C1C (stereo not drawn) [Compound 107]	0.25 (≈ 0.274 µM)	0.004 (≈ 0.00439 µM)	0.015 (≈ 0.0165 µM)	0.5 (≈ 0.549 µM)	8 (≈ 8.78 µM)	
CCc1cc2nc3c4c5c6c(C)c(O)c4c(=O)c(c-3oc2cc1N1CCCCC1)NC(=O)/C(C)=C\C=C\[C@H](C)[C@H](O)[C@@H](C)[C@@H](O)[C@@H](C)[C@H](O)[C@H](C)[C@@H](OC)/C=C/O[C@@](C)(O6)C5=O [Compound 108]	2 (≈ 2.34 µM)	0.12 (≈ 0.141 µM)	1 (≈ 1.17 µM)	4 (≈ 4.68 µM)	1 (≈ 1.17 µM)	
CO[C@H]1/C=C/O[C@@]2(C)Oc3c(C)c(O)c4c(=O)c(c5oc6cc(N7CCC(C(N)=O)CC7)cc(O)c6nc-5c4c3C2=O)NC(=O)/C(C)=C\C=C\[C@H](C)[C@H](O)[C@@H](C)[C@@H](O)[C@@H](C)[C@H](O)[C@@H]1C [Compound 109]	0.25 (≈ 0.282 µM)	0.002 (≈ 0.00226 µM)	0.03 (≈ 0.0339 µM)	1 (≈ 1.13 µM)	>8	
CCOC(=O)C1CCN(c2cc(O)c3nc4c5c6c7c(C)c(O)c5c(=O)c(c-4oc3c2)NC(=O)/C(C)=C\C=C\[C@H](C)[C@H](O)[C@@H](C)[C@@H](O)[C@@H](C)[C@H](O)[C@H](C)[C@@H](OC)/C=C/O[C@@](C)(O7)C6=O)CC1 [Compound 110]	0.12 (≈ 0.131 µM)	0.008 (≈ 0.00875 µM)	0.004 (≈ 0.00438 µM)	0.5 (≈ 0.547 µM)	>8	
COC1C=COC2(C)Oc3c(C)c(O)c4c(=O)c(c5oc6cc(N7CCC(F)CC7)ccc6nc-5c4c3C2=O)NC(=O)C(C)=CC=CC(C)C(O)C(C)C(O)C(C)C(O)C1C (stereo not drawn) [Compound 111]	0.12 (≈ 0.142 µM)	0.008 (≈ 0.00948 µM)	0.03 (≈ 0.0355 µM)	0.5 (≈ 0.592 µM)	8 (≈ 9.48 µM)	
COC1C=COC2(C)Oc3c(C)c(O)c4c(=O)c(c5oc6cc(N7CCC(F)(F)CC7)ccc6nc-5c4c3C2=O)NC(=O)C(C)=CC=CC(C)C(O)C(C)C(O)C(C)C(O)C1C (stereo not drawn) [Compound 112]	0.25 (≈ 0.29 µM)	0.015 (≈ 0.0174 µM)	0.03 (≈ 0.0348 µM)	1 (≈ 1.16 µM)	>8	
COC1C=COC2(C)Oc3c(C)c(O)c4c(=O)c(c5oc6cc(N7CC(C)OC(C)C7)cc(O)c6nc-5c4c3C2=O)NC(=O)C(C)=CC=CC(C)C(O)C(C)C(O)C(C)C(O)C1C (stereo not drawn) [Compound 114]	0.25 (≈ 0.287 µM)	0.002 (≈ 0.00229 µM)	0.015 (≈ 0.0172 µM)	0.25 (≈ 0.287 µM)	8 (≈ 9.17 µM)	
